In patent US9365576B2, “Pyrrolopyrrolidinone compounds” (Novartis AG, priority 2012, dated 2016) one finds IC50 data, which are given here for eleven compounds.

Holding throughout (type): binding
Assay [1] addresses T1, human MDM2 protein (amino acids 2-188) (Homo sapiens (Human), UniProt Q00987). As to the kind of experiment: TR-FRET assay, p53-MDM2 Assay 1. The following applies: 1.25 nM MDM2-biotinylated, 10 nM Cy5-p53 peptide. The protocol:
(§1) The inhibition of p53-MDM2 and p53-MDM4 interactions is measured by time resolved fluorescence energy transfer (TR-FRET). Fluorescence energy transfer (or Foerster resonance energy transfer) describes an energy transfer between donor and acceptor fluorescent molecules. For this assay, human MDM2 protein (amino acids 2-188) and human MDM4 protein (amino acids 2-185), tagged with a C-terminal biotin moiety, are used in combination with a Europium labeled streptavidin (Perkin Elmer, Inc., Waltham, Mass., USA) serving as the donor fluorophore. The p53 derived, Cy5 labeled peptide Cy5-TFSDLWKLL (p53 aa18-26) is the energy acceptor. Upon excitation of the donor molecule at 340 nm, binding interaction between MDM2 or MDM4 and the p53 peptide induces energy transfer and enhanced response at the acceptor emission wavelength at 665 nm. Disruption of the formation of the p53-MDM2 or p53-MDM4 complex due to an inhibitor molecule binding to the p53 binding site of MDM2 or MDM4 results in increased donor emission at 620 nm. The ratiometric FRET assay readout is calculated from the raw data of the two distinct fluorescence signals measured in time resolved mode (fluorescence 665 nm/fluorescence 620 nm×1000).
(§2) After addition of 1.25 nM MDM2-biotinylated or 2.5 nM MDM4-biotinylated (internal preparations), and 0.625 nM Europium labeled streptavidin (Perkin Elmer), the solution is pre-incubated for 15 minutes at room temperature, then 10 nM Cy5-p53 peptide (internal preparation) is added before an incubation at room temperature for 15 minutes prior to reading the plate. For measurement of samples, a Victor II microplate reader (Perkin Elmer) is used with the following settings: Excitation 340 nm, Emission Donor 620 nm and Emission Acceptor 665 nm. IC50 values are calculated by curve fitting using XLfit. If not specified, reagents are purchased from Sigma-Aldrich Chemie GmBH, Buchs, Switzerland.
(§3) This assay was used to evaluate compounds displaying inhibition of p53-MDM2 interaction and p53-MDM4 interaction at IC50s of 0.005 to 50 μM (p53-MDM2 Assay 1 and p53-MDM4 Assay 1, respectively). For selected compounds displaying IC50s between […] on MDM2, a slightly modified assay is used with the following adaptations: 0.1 nM MDM2, 0.1 nM Europium labeled streptavidin and Tecan genios Pro is used as a microplate reader for the fluorescence measurements (p53-MDM2 Assay 2).
(TR-FRET usually uses a lanthanide donor and a delayed reading to cut background.)

Assay [2] has as its target human MDM4 protein (amino acids 2-185) (Homo sapiens (Human), UniProt O15151). As to the kind of experiment: TR-FRET assay, p53-MDM4 Assay 1. The following applies: 2.5 nM MDM4-biotinylated, 10 nM Cy5-p53 peptide. The protocol: as §1, §2, §3
Assay [3] deals with T1, human MDM2 protein (amino acids 2-188). As to the kind of experiment: TR-FRET assay, p53-MDM2 Assay 2 (modified). The following applies: TR-FRET; 0.1 nM MDM2, 0.1 nM Europium labeled streptavidin, Tecan genios Pro reader; read-out: IC50 p53-MDM2 Assay 2. An outline of the steps:
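IC50 values were curve-fitted from the time-resolved 665/620 nm emission ratio after 340 nm excitation. The assay combined 0.625 nM europium-streptavidin donor with 1.25 nM C-terminally biotinylated MDM2 2–188 (15 min, RT), followed by 15 min with 10 nM Cy5-labeled p53 18–26 acceptor peptide.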

Molecules are shown by their SMILES.

T1 sequence (Q00987 2-188): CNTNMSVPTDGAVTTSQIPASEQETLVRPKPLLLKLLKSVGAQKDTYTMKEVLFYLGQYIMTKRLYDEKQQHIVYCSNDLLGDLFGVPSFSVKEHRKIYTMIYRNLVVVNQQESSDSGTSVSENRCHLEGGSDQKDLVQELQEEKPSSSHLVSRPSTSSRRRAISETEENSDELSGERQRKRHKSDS
Chain of human MDM4 protein (amino acids 2-185) (O15151 2-185): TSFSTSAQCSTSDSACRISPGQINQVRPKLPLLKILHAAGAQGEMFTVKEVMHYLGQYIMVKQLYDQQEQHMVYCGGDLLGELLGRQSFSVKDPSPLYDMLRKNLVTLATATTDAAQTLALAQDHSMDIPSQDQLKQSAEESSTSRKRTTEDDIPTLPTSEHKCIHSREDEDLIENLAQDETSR

Usually IC50 stands for the concentration that gives 50% inhibition. As for `COc1ncc(-c2cc3c(n2C(C)C)[C@H](c2ccc(Cl)cc2)N(c2cc(Cl)c(=O)n(C)c2)C3=O)c(OC)n1` [Example 121, (S)-5-(5-Chloro-1-methyl-6-oxo-1,6-dihydro-pyridin-3-yl)-6-(4-chloro-phenyl)-2-(2,4-dimethoxy-pyrimidin-5-yl)-1-isopropyl-5,6-dihydro-1H-pyrrolo[3,4-b]pyrrol-4-one], the values for the IC50 in assay [1], in assay [2] and in assay [3] were 0.6 nM, 1060 nM and 0.087 nM, respectively.

`CNC(=O)N1CCC(N2C(=O)c3cc(-c4cnc(OC)nc4OC)n(C(C)C)c3C2c2ccc(Cl)cc2)CC1` (stereo not drawn) [Example 107, 4-[6-(4-Chloro-phenyl)-2-(2,4-dimethoxy-pyrimidin-5-yl)-1-isopropyl-4-oxo-4,6-dihydro-1H-pyrrolo[3,4-b]pyrrol-5-yl]-piperidine-1-carboxylic acid methylamide]: the half-maximal inhibitory concentration (IC50) came out at 3 nM in assay [1], 3640 nM in assay [2] and 2.69 nM in assay [3].

On to `COc1ncc(-c2cc3c(n2C(C)C)C(c2ccc(Cl)cc2C)N([C@H]2CC[C@H](O)CC2)C3=O)c(OC)n1` (stereo partly drawn) [Example 103, 6-(4-Chloro-2-methyl-phenyl)-2-(2,4-dimethoxy-pyrimidin-5-yl)-5-(trans-4-hydroxy-cyclohexyl)-1-isopropyl-5,6-dihydro-1H-pyrrolo[3,4-b]pyrrol-4-one], for which the values for the concentration for half-maximal inhibition (IC50) in assay [1], in assay [2] and in assay [3] were 20.7 nM, 4710 nM and 30.1 nM, respectively.

As to `COc1ccc(C(=O)O)cc1-c1cc2c(n1C(C)C)C(c1ccc(Cl)cc1)N([C@H]1CC[C@H](O)CC1)C2=O` (stereo partly drawn) [Example 65, 3-[6-(4-Chloro-phenyl)-5-(trans-4-hydroxy-cyclohexyl)-1-isopropyl-4-oxo-1,4,5,6-tetrahydro-pyrrolo[3,4-b]pyrrol-2-yl]-4-methoxy-benzoic acid], the half-maximal inhibitory concentration (IC50) in assay [1] was 12.3 nM; in assay [2], 8790 nM; in assay [3] it was 4.91 nM.

`COc1nc(N)ncc1-c1cc2c(n1C(C)C)C(c1ccc(Cl)cc1)N([C@H]1CC[C@H](O)CC1)C2=O` (stereo partly drawn) [Example 68, 2-(2-Amino-4-methoxy-pyrimidin-5-yl)-6-(4-chloro-phenyl)-5-(trans-4-hydroxy-cyclohexyl)-1-isopropyl-5,6-dihydro-1H-pyrrolo[3,4-b]pyrrol-4-one]: the half-inhibitory concentration (IC50) in assay [1] turned out to be 12.6 nM; in assay [2] it was 7860 nM; in assay [3], 14.2 nM.

With `COc1nc(N(C)C)ncc1-c1cc2c(n1C(C)C)[C@H](c1ccc(C#N)cc1)N(c1cc(Cl)c[nH]c1=O)C2=O` [Example 167, 4-[(S)-5-(5-Chloro-2-oxo-1,2-dihydro-pyridin-3-yl)-2-(2-dimethylamino-4-methoxy-pyrimidin-5-yl)-1-isopropyl-4-oxo-1,4,5,6-tetrahydro-pyrrolo[3,4-b]pyrrol-6-yl]-benzonitrile], the IC50 in assay [1] came out at 0.8 nM; in assay [2], 716 nM; in assay [3], 0.161 nM.

For `COc1ncc(-c2cc3c(n2C(C)C)C(c2ccc(Cl)cc2C)N(C2CCOCC2)C3=O)c(OC)n1` (stereo not drawn) [Example 105, 6-(4-Chloro-2-methyl-phenyl)-2-(2,4-dimethoxy-pyrimidin-5-yl)-1-isopropyl-5-(tetrahydro-pyran-4-yl)-5,6-dihydro-1H-pyrrolo[3,4-b]pyrrol-4-one], the figures for the IC50 in assay [1], in assay [2] and in assay [3] were 10.2 nM, 6290 nM and 14.3 nM, respectively.

Take `COc1ccccc1-c1cc2c(n1C(C)C)C(c1ccc(Cl)cc1C)N([C@H]1CC[C@H](O)CC1)C2=O` (stereo partly drawn) [Example 101, 6-(4-Chloro-2-methyl-phenyl)-5-(trans-4-hydroxy-cyclohexyl)-1-isopropyl-2-(2-methoxy-phenyl)-5,6-dihydro-1H-pyrrolo[3,4-b]pyrrol-4-one]: the half-maximal inhibitory concentration (IC50) is 27 nM in assay [1], 2990 nM in assay [2] and 31.9 nM in assay [3].

On to `CNC(=O)c1ccc(OC)c(-c2cc3c(n2C(C)C)[C@H](c2ccc(Cl)cc2C)N(c2cc(Cl)ccc2C)C3=O)c1` [Example 32, 3-[(S)-5-(5-Chloro-2-methyl-phenyl)-6-(4-chloro-2-methyl-phenyl)-1-isopropyl-4-oxo-1,4,5,6-tetrahydro-pyrrolo[3,4-b]pyrrol-2-yl]-4-methoxy-N-methyl-benzamide], for which the half-inhibitory concentration (IC50) in assay [1] amounted to 0.5 nM; in assay [2], 264 nM; in assay [3], 0.094 nM.

For `CNC(=O)c1ccc(OC)c(-c2cc3c(n2C(C)C)C(c2ccc(Cl)cc2C)N([C@H]2CC[C@H](O)CC2)C3=O)c1` (stereo partly drawn) [Example 102, 3-[6-(4-Chloro-2-methyl-phenyl)-5-(trans-4-hydroxy-cyclohexyl)-1-isopropyl-4-oxo-1,4,5,6-tetrahydro-pyrrolo[3,4-b]pyrrol-2-yl]-4-methoxy-N-methyl-benzamide], the IC50 is 12.7 nM in assay [1], 2380 nM in assay [2] and 13.6 nM in assay [3].

For `CNC(=O)c1ccc(OC)c(-c2cc3c(n2C(C)C)C(c2ccc(Cl)cc2C)N(c2cccc(Cl)c2F)C3=O)c1` (stereo not drawn) [Example 2, 3-[5-(3-Chloro-2-fluoro-phenyl)-6-(4-chloro-2-methyl-phenyl)-1-isopropyl-4-oxo-1,4,5,6-tetrahydro-pyrrolo[3,4-b]pyrrol-2-yl]-4-methoxy-N-methyl-benzamide], the results for the IC50 in assay [1], in assay [2] and in assay [3] were 2.9 nM, 2900 nM and 0.757 nM, respectively.
